According to US20250230193A1, “CYCLIC COMPOUND HAVING SELECTIVE KRAS INHIBITORY EFFECT ON HRAS AND NRAS” (CHUGAI SEIYAKU KABUSHIKI KAISHA, priority 2022, published 2025):
Where a SMILES comes first, the peptide text is derived from it. Bridges are numbered along the chain shown (N, C = ends). [ ]: non-standard residue; d: D form. The star is where a group is joined. hPhe(3-Cl-4-CF3) = N[C@@H](CCc1ccc(C(F)(F)F)c(Cl)c1)C(=O)O; NPrPhe(4-CF3) = CCCN[C@@H](Cc1ccc(C(F)(F)F)cc1)C(=O)O; NPrPhe(4-Me) = CCCN[C@@H](Cc1ccc(C)cc1)C(=O)O; NMeGly(cPent) = CN[C@H](C(=O)O)C1CCCC1; Aze(3S-Me) = C[C@H]1CN[C@@H]1C(=O)O; NEtPhe = CCN[C@@H](Cc1ccccc1)C(=O)O; NMeD = CN[C@@H](CC(=O)O)C(=O)O; NMeL = CN[C@@H](CC(C)C)C(=O)O; Morpholide = C1CN(*)CCO1; NMeA = CN[C@@H](C)C(=O)O; Ac5c = NC1(C(=O)O)CCCC1; Aze = O=C(O)[C@@H]1CCN1; Sar = CNCC(=O)O

Legend:
[1] = target: GDP-bound HRAS wild-type protein (Homo sapiens, UniProt P01112); assay: Binding to HRAS by surface plasmon resonance (SPR), Single Cycle Kinetics
GDP-bound HRAS wild-type protein, sequence (P01112 whole entry): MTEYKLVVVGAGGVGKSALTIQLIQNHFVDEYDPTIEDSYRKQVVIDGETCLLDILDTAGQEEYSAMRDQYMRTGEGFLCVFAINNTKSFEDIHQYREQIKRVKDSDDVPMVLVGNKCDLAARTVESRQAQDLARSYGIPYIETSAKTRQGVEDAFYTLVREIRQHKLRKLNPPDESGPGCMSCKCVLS

[2] = target: GDP-bound NRAS wild-type protein (Homo sapiens, UniProt P01111); assay: Binding to NRAS by surface plasmon resonance (SPR), Single Cycle Kinetics
GDP-bound NRAS wild-type protein, sequence (P01111 whole entry): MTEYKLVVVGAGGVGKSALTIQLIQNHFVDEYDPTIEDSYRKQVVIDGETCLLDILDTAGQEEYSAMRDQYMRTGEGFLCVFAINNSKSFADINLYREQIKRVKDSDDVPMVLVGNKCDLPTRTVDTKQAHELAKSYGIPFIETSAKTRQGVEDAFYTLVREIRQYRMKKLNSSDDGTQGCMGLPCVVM

[3] = SPR, GDP-bound wild-type proteins
[4] = SPR, GDP-bound HRAS wild-type vs GDP-bound KRAS wild-type
[5] = SPR, GDP-bound NRAS wild-type vs GDP-bound KRAS wild-type

With `CC[C@H](C)[C@@H]1NC(=O)[C@H](CC(C)C)N(C)C(=O)C[C@@H](C(=O)N2CCOCC2)N(C)C(=O)[C@H](C2CCCC2)N(C)C(=O)C2(CCCC2)NC(=O)[C@@H]2CCCN2C(=O)[C@H](CCc2ccc(C(F)(F)F)c(Cl)c2)NC(=O)CN(C)C(=O)[C@H](Cc2ccccc2)N(CC)C(=O)[C@@H]2CCN2C(=O)[C@H](C)N(C)C1=O` [PP0215] ([NMeL]I[NMeA][Aze][NEtPhe][Sar][hPhe(3-Cl-4-CF3)]P[Ac5c][NMeGly(cPent)][NMeD]-Morpholide; lactam N-11) the “HRAS/KRAS (ratio of KD for GDP-bound HRAS wild-type to KD for KRAS)” value ([1]; SPR) was “C (A compound having a KD ratio of 0.1 or more and less than 3 is denoted as C)” and the “NRAS/KRAS (ratio of KD for GDP-bound NRAS wild-type to KD for KRAS)” value ([2]; SPR) was “C (A compound having a KD ratio of 0.1 or more and less than 3 is denoted as C)”.

With `CCCN1C(=O)[C@@H]2[C@@H](C)CN2C(=O)[C@H](C)N(C)C(=O)[C@H]([C@@H](C)CC)NC(=O)[C@H](CC(C)C)N(C)C(=O)C[C@@H](C(=O)N2CCOCC2)N(C)C(=O)[C@H](C2CCCC2)N(C)C(=O)C2(CCCC2)NC(=O)[C@@H]2CCCN2C(=O)[C@H](CCc2ccc(C(F)(F)F)c(Cl)c2)NC(=O)CN(C)C(=O)[C@@H]1Cc1ccc(C)cc1` [PP0138] ([NMeL]I[NMeA][Aze(3S-Me)][NPrPhe(4-Me)][Sar][hPhe(3-Cl-4-CF3)]P[Ac5c][NMeGly(cPent)][NMeD]-Morpholide; lactam N-11) the “HRAS/KRAS (ratio of KD for GDP-bound HRAS wild-type to KD for KRAS)” value ([1]; SPR) was “C (A compound having a KD ratio of 0.1 or more and less than 3 is denoted as C)” and the “NRAS/KRAS (ratio of KD for GDP-bound NRAS wild-type to KD for KRAS)” value ([2]; SPR) was “C (A compound having a KD ratio of 0.1 or more and less than 3 is denoted as C)”.

`CCC[C@H]1C(=O)N[C@@H](C2CCCCC2)C(=O)N(C)CC(=O)N(C)[C@H]2C/C=C\CCN(C2=O)[C@@H](Cc2ccc(C(F)(F)F)cc2)C(=O)N(C)CC(=O)N[C@@H](CCc2ccc(C(F)(F)F)c(Cl)c2)C(=O)N2C[C@H](OCC)C[C@H]2C(=O)NC2(CC(C)(C)C2)C(=O)N(C)[C@@H](CC(C)C)C(=O)N(C)[C@H](C(=O)N(C)C)CC(=O)N1C` [PP3017] was tested, and the “HRAS/KRAS (ratio of KD value with respect to GDP-bound HRAS wild-type protein to KD value with respect to KRAS)” value [1, 3] was “A (a compound having 10 or more and less than 20 is denoted as A)” and the “NRAS/KRAS (ratio of KD value with respect to GDP-bound NRAS wild-type protein to KD value with respect to KRAS)” value [2, 3] was “AA (a compound having 20 or more is denoted as AA)”.

In the case of `C=CCCCCN(C)C(=O)[C@@H]1CC(=O)N(C)[C@@H](CC2CC2)C(=O)N[C@@H](CC=C)C(=O)N(C)CC(=O)N(C)[C@H]2C/C=C\CCN(C2=O)[C@@H](Cc2ccc(C(F)(F)F)cc2)C(=O)N(C)CC(=O)N[C@@H](CCc2cc(F)c(C(F)(F)F)c(F)c2)C(=O)N2C[C@H](OCC)C[C@H]2C(=O)NC2(CCC2)C(=O)N(C)[C@@H](C2CCCC2)C(=O)N1C` [PP1554], the “HRAS/KRAS (ratio of KD value for GDP-bound HRAS wild-type protein to KD value for KRAS)” value ([1]; SPR, KD ratio class) was “A (a compound having 10 or more and less than 20 is denoted as A)” and the “NRAS/KRAS (ratio of KD value for GDP-bound NRAS wild-type protein to KD value for KRAS)” value ([2]; SPR, KD ratio class) was “A (a compound having 10 or more and less than 20 is denoted as A)”.

In the case of `CCC[C@H]1C(=O)N[C@@H]([C@@H](C)CC)C(=O)N(C)CC(=O)N(C)[C@H]2C/C=C\CCN(C2=O)[C@@H](Cc2ccc(C(F)(F)F)cc2)C(=O)N(C)CC(=O)N[C@@H](CCc2cc(F)c(C(F)F)c(F)c2)C(=O)N2C[C@H](OCC)C[C@H]2C(=O)NC2(CC(C)(C)C2)C(=O)N(C)[C@@H](C2CCCC2)C(=O)N(C)[C@H](C(=O)N(C)C)CC(=O)N1C` [PP2780], the “HRAS/KRAS (ratio of KD value with respect to GDP-bound HRAS wild-type protein to KD value with respect to KRAS)” value ([1]; class symbols) was “A (a compound having 10 or more and less than 20 is denoted as A)” and the “NRAS/KRAS (ratio of KD value with respect to GDP-bound NRAS wild-type protein to KD value with respect to KRAS)” value ([2]; class symbols) was “A (a compound having 10 or more and less than 20 is denoted as A)”.

`CCCOC[C@H]1C(=O)N[C@@H]([C@@H](C)CC)C(=O)N(C)CC(=O)N(C)[C@H]2C/C=C\CCN(C2=O)[C@@H](Cc2ccc(C(F)(F)F)cc2)C(=O)N(C)CC(=O)N[C@@H](CCc2cc(F)c(C(F)(F)F)c(F)c2)C(=O)N2C[C@H](OCC)C[C@H]2C(=O)NC2(CC(C)(C)C2)C(=O)N(C)[C@@H](C2CCCC2)C(=O)N(C)[C@H](C(=O)N(C)CCC)CC(=O)N1C` [PP1673] was tested, and the “HRAS/KRAS (ratio of KD value for HRAS to KD value for KRAS)” value ([1]; KD ratio, GDP-bound HRAS wild-type vs GDP-bound KRAS wild-type, SPR) was “A (a compound having 10 or more and less than 20 is denoted as A)” and the “NRAS/KRAS (ratio of KD value for NRAS to KD value for KRAS)” value ([2]; KD ratio, GDP-bound NRAS wild-type vs GDP-bound KRAS wild-type, SPR) was “A (a compound having 10 or more and less than 20 is denoted as A)”.

In the case of `CCCN1C(=O)CN(C)C(=O)CNC(=O)[C@H]([C@@H](C)CC)NC(=O)[C@H](CC(C)C)N(C)C(=O)C[C@@H](C(=O)N2CCOCC2)N(C)C(=O)[C@H](C2CCCC2)N(C)C(=O)C2(CCCC2)NC(=O)[C@@H]2CCCN2C(=O)[C@H](CCc2ccc(C(F)(F)F)c(Cl)c2)NC(=O)CN(C)C(=O)[C@@H]1Cc1ccc(C(F)(F)F)cc1` [PP0155] ([NMeL]IG[Sar][NPrPhe(4-CF3)][Sar][hPhe(3-Cl-4-CF3)]P[Ac5c][NMeGly(cPent)][NMeD]-Morpholide; lactam N-11), the “HRAS/KRAS (ratio of KD for GDP-bound HRAS wild-type to KD for KRAS)” value ([1]; SPR) was “C (A compound having a KD ratio of 0.1 or more and less than 3 is denoted as C)” and the “NRAS/KRAS (ratio of KD for GDP-bound NRAS wild-type to KD for KRAS)” value ([2]; SPR) was “B (a compound having 3 or more and less than 10 is denoted as B)”.

In the case of `CCOC[C@H]1C(=O)N[C@@H]([C@@H](C)CC)C(=O)N(C)CC(=O)N(C)[C@H]2C/C=C\CCN(C2=O)[C@@H](Cc2ccc(C(F)(F)F)cc2)C(=O)N(C)CC(=O)N[C@@H](CCc2ccc(C(F)(F)F)c(OC)c2)C(=O)N2C[C@H](OCC)C[C@H]2C(=O)N(C)C2(CCC2)C(=O)N(C)[C@@H](C(CC)CC)C(=O)N(C)[C@H](C(=O)N(C)C)CC(=O)N1C` [PP2383], the “HRAS/KRAS (ratio of KD value with respect to HRAS to KD value with respect to KRAS)” value [1, 4] was “A (a compound having 10 or more and less than 20 is denoted as A)” and the “NRAS/KRAS (ratio of KD value with respect to NRAS to KD value with respect to KRAS)” value [2, 5] was “A (a compound having 10 or more and less than 20 is denoted as A)”.

For `CCO[C@@H]1C[C@H]2C(=O)NC3(CCC3)C(=O)N(C)[C@@H](C3CCCC3)C(=O)N(C)[C@H](C(=O)N3CCCC3)CC(=O)N(C)[C@H]3CCCCC/C=C/c4ccc(cc4)C[C@@H](C(=O)N(C)CC(=O)N[C@@H](CCc4ccc(Cl)c(Cl)c4)C(=O)N2C1)N1CC/C=C\C[C@@H](C1=O)N(C)C(=O)CN(C)C(=O)[C@H]([C@@H](C)CC)NC3=O` [PP3049], the “HRAS/KRAS (ratio of KD value with respect to GDP-bound HRAS wild-type protein to KD value with respect to KRAS)” value [1, 3] was “A (a compound having 10 or more and less than 20 is denoted as A)” and the “NRAS/KRAS (ratio of KD value with respect to GDP-bound NRAS wild-type protein to KD value with respect to KRAS)” value [2, 3] was “AA (a compound having 20 or more is denoted as AA)”.

`CC[C@H](C)[C@@H]1NC(=O)[C@H](COC)N(C)C(=O)C[C@@H](C(=O)N2CCCCC2)N(C)C(=O)[C@H](C2CCCC2)N(C)C(=O)C2(CC(C)(C)C2)NC(=O)[C@@H]2C[C@@H](OC(C)C)CN2C(=O)[C@H](CCc2cc(F)c(C(F)(F)F)c(F)c2)NC(=O)CN(C)C(=O)[C@H](Cc2ccc(C)cc2)N2CC/C=C\C[C@@H](C2=O)N(C)C(=O)CN(C)C1=O` [PP2669] was tested, and the “HRAS/KRAS (ratio of KD value with respect to GDP-bound HRAS wild-type protein to KD value with respect to KRAS)” value ([1]; class symbols) was “A (a compound having 10 or more and less than 20 is denoted as A)” and the “NRAS/KRAS (ratio of KD value with respect to GDP-bound NRAS wild-type protein to KD value with respect to KRAS)” value ([2]; class symbols) was “A (a compound having 10 or more and less than 20 is denoted as A)”.

In the case of `CCO[C@@H]1C[C@H]2C(=O)NC3(CC(C)(C)C3)C(=O)N(C)[C@@H](C(CC)CC)C(=O)N(C)[C@H](C(=O)N(C)C)CC(=O)N(C)[C@@H](COC)C(=O)N[C@@H]([C@@H](C)CC)C(=O)N(C)CC(=O)N(C)[C@H]3C/C=C\CCN(C3=O)[C@@H](CC3CCCCC3)C(=O)N(C)CC(=O)N[C@@H](CCc3cc(F)c(C(F)(F)F)c(F)c3)C(=O)N2C1` [PP2456], the “HRAS/KRAS (ratio of KD value with respect to HRAS to KD value with respect to KRAS)” value [1, 4] was “A (a compound having 10 or more and less than 20 is denoted as A)” and the “NRAS/KRAS (ratio of KD value with respect to NRAS to KD value with respect to KRAS)” value [2, 5] was “A (a compound having 10 or more and less than 20 is denoted as A)”.
